Like-named read-outs stand apart in the source and are kept apart here.
Columns and labels:
[1] = test system: Glyceraldehyde-3-Phospahte Dehydrogenase; conditions: cited from earlier work
sarcoma-180 cells [2] = test: Measurement of tumor volume, Sarcoma-180 tumour in left hind leg of mice; assay type: in vivo, Swiss albino female mice; conditions: bare methylglyoxal 20 mg/kg body weight/day iv, five days a week
Description: In the present invention, effect of modified nanomethylGlyoxal, against tumor in mice, have been studied. Briefly, Swiss albino female mice aged 4-6 weeks weighing 18-20 g were taken. Each group contained four mice. Tumors were developed in the left hind leg of a mouse by intra-muscular injection of sarcoma-180 cells (approximately 2×10^6 cells in each mouse). Each set of experiment was repeated 4 times. Drug was administered to the mice intravenously, five days a week. Polymer conjugated methylglyoxal (Nano-MG) was administered intravenously at an amount of 0.4 mg/kg body weight/day. One group received bare methylglyoxal (20 mg/kg body weight/day). Drug was administered after 72 hours of inoculation of Sarcoma-180 tumour in the treated group. Treatment was continued for four weeks.

[3] = test system: Ehrlich ascites carcinoma (EAC) cells; test: Tumor growth inhibition of EAC cells inoculated intraperitoneally in mice (Trypan Blue cell count); assay type: in vivo
Description: The Effect of Nano-Methylglyoxal on the Excessive Proliferation of Cancerous Cells in Mice was Investigated as Follows: • a) Mice bearing Ehrlich ascites carcinoma cells (No. of EAC cell inoculated each mouse=1×10^6) were treated intravenously with nano-methylglyoxal in normal saline to observe the effect of cell proliferation. Treatment started after 24 hrs, of inoculation in mice intravenously with three different doses of nanoMG in solution. In first group every day each mouse received 25 μl nanoMG solution (containing 2.5 μg methylglyoxal), in second group each mouse received 50 μl nanoMG solution (containing 5 μg methylglyoxal) and in third group each mouse received 100 μl nanoMG solution (containing 10 μg methylglyoxal). Mice in the negative control group were similarly treated intravenously with normal saline and the positive control groups were treated intravenously with bare methylglyoxal (20 mg/kg body weight/day) in normal saline. Each group contains six mice. Each set of experiment was repeated four times. Melatonin (0.25 mg/kg body weight/day), creatine (150 mg/kg body weight/day) and Ascorbic acid (50 mg/kg body weight/day) were fed orally to each mouse. Treatment was continued for consecutive 8 days (Table-5, Table-6). […]

Sarcoma-180 cells [4] = conditions: sarcoma-180 cells injected concomitantly with Methylglyoxal; cited from earlier work
peritoneal macrophages [5] = test: Superoxide anion generation (production of reduced NBT) by peritoneal macrophages; assay type: in vivo, mice; conditions: bare MG 20 mg/kg body weight/day iv
Description: Values in the bracket denote dose at mg/kg body wt/day • Ehrlich ascites carcinoma (EAC) cells developed in the intraperitoneal cavity of mouse were collected in different time intervals. After washing with normal saline the cells were re-suspended in phosphate buffered saline. […] Number of Sarcoma-180 cells inoculated to each mouse was 1×10^6. The tumor bearing mice were treated with modified nano-methylglyoxal (present formulation) in normal saline through intravenous route to study the tumor growth inhibition by nano-methylglyoxal. Treatment started after 7 days of inoculation in mice intravenously with 50 μl nanoMG in solution (containing 5 μg methylglyoxal). Mice in the negative control group were similarly treated intravenously with normal saline and the positive control groups were treated intravenously with bare methylglyoxal (20 mg/kg body weight/day) in normal saline. Each group contained six mice. Each set of experiment was repeated four times. melatonin (0.25 mg/kg body weight/day), creatine (150 mg/kg body weight/day) and Ascorbic acid (50 mg/kg body weight/day) were fed orally to each mouse everyday. Treatment was given with single daily dose for consecutive 12 days. […] Treatment started after 7 days of inoculation in mice intravenously with 50 μl nanoMG in solution (containing 5 μg methylglyoxal). Treatment was continued for 20 doses (six doses per week) in 23 days. […]

Mitochondrial Complex I = conditions: cited from earlier work
peritoneal macrophages [6] = test: Peritoneal macrophage count in treated mice; assay type: in vivo; conditions: for Peritoneal macrophage Count (×10^6): bare MG 20 mg/kg body weight/day iv
Description: Values in the bracket denote dose at mg/kg body wt/day • Ehrlich ascites carcinoma (EAC) cells developed in the intraperitoneal cavity of mouse were collected in different time intervals. After washing with normal saline the cells were re-suspended in phosphate buffered saline. […] Number of Sarcoma-180 cells inoculated to each mouse was 1×10^6. The tumor bearing mice were treated with modified nano-methylglyoxal (present formulation) in normal saline through intravenous route to study the tumor growth inhibition by nano-methylglyoxal. Treatment started after 7 days of inoculation in mice intravenously with 50 μl nanoMG in solution (containing 5 μg methylglyoxal). Mice in the negative control group were similarly treated intravenously with normal saline and the positive control groups were treated intravenously with bare methylglyoxal (20 mg/kg body weight/day) in normal saline. Each group contained six mice. Each set of experiment was repeated four times. melatonin (0.25 mg/kg body weight/day), creatine (150 mg/kg body weight/day) and Ascorbic acid (50 mg/kg body weight/day) were fed orally to each mouse everyday. Treatment was given with single daily dose for consecutive 12 days. […] Treatment started after 7 days of inoculation in mice intravenously with 50 μl nanoMG in solution (containing 5 μg methylglyoxal). Treatment was continued for 20 doses (six doses per week) in 23 days. Melatonin (0.25 mg/kg body weight/day), creatine (150 mg/kg body weight/day) and Ascorbic acid (50 mg/kg body weight/day) were fed orally to each mouse. • d) Solid tumor bearing mice treated with nanoMG as described previously were sacrificed for the isolation of macrophages. Briefly, RPMI-1640 was injected in the peritoneal cavity of mouse and peritoneal macrophages were isolated and centrifuged and resuspended in RPMI-1640+10% FBS and used further for immunomodulatory studies. […] In the present invention, effect of modified nanomethylGlyoxal, against tumor in mice, have been studied. Briefly, Swiss albino female mice aged 4-6 weeks weighing 18-20 g were taken. Each group contained four mice. […]

[7] = test system: Ehrlich Ascites Carcinoma (EAC) cells; test: Oral Melatonin on EAC cells implanted intra-peritoneally in female mice; assay type: in vivo; conditions: Melatonin 50 mg/kg body wt.
From the text: With these rationales, Melatonin has been applied to treat cancer in both animal and human in our laboratory and has shown significant improvement over the formulations without Melatonin. […] The effects of oral supplementation of Melatonin on growth of Ehrlich Ascites Carcinoma (EAC) cells implanted intra-peritoneally in female mice were studied in our lab. […] It has strong antioxidant properties and anticancer and onco-static action. Melatonin has potential anticancer activity whether given alone or in association with cancer chemotherapy. […] In this study, 30 patients with untreatable metastatic solid tumors were treated with daily 30 mg oral Melatonin in conjunction with low doses of antitumor cytokines. […] In addition Melatonin may have other biological effects, which could be useful in palliative therapy of Cancer.

Sarcoma = test: Sarcoma-bearing mice: Creatine content, CK activity and tumor size; assay type: in vivo
From the text: We also investigated the status of Creatine and CK in a few post-operative tissue samples from human patients, and similar to the results of animal tissues, the Creatine content and CK activity were much reduced in both human Fibrosarcoma and Gastro-Intestinal Tract Malignancy, compared to healthy control tissues.

L1236 = conditions: cited from earlier work

## CC(=O)C=O [Bare-methylglyoxal, Methylglyoxal]
[1]; enzyme of malignant cells
  Enzyme inhibition: inhibits
[1]; enzyme of normal cells
  Enzyme inhibition: no inhibitory effect
sarcoma-180 cells [2]; day 12
  Sarcoma-180 + Bare-MG Volume of tumour (c.c.): 1 ± 0.1 c.c.
sarcoma-180 cells [2]; day 16
  Sarcoma-180 + Bare-MG Volume of tumour (c.c.): 1.4 ± 0.05 c.c.
sarcoma-180 cells [2]; day 21
  Sarcoma-180 + Bare-MG Volume of tumour (c.c.): 2 ± 0.15 c.c.
sarcoma-180 cells [2]; day 26
  Sarcoma-180 + Bare-MG Volume of tumour (c.c.): 2 ± 0.17 c.c.
sarcoma-180 cells [2]; day 31
  Sarcoma-180 + Bare-MG Volume of tumour (c.c.): 2.73 ± 0.27 c.c.
[3]; Bare-methylglyoxal 20 mg/kg body weight/day iv, 8 consecutive doses from day 1, in million cells
  No. of cells on day 9: 29 ± 2.9
Sarcoma-180 cells [4]
  Tumor development: No tumor developed
Peritoneal macrophages [5]; normal mice
  Superoxide anion generation Production of reduced NBT: 243 ± 2.82 µmol
Peritoneal macrophages [5]; sarcoma tumour bearing mice
  Superoxide anion generation Production of reduced NBT: 317.5 ± 10.60 µmol
Mitochondrial Complex I; enzyme of malignant cells
  Enzyme inhibition: inhibits
Mitochondrial Complex I; enzyme of normal cells
  Enzyme inhibition: no inhibitory effect
Peritoneal macrophages [6]; bare-MG treated mice (20 mg/kg/day iv)
  Macrophage count increase with respect to untreated tumour bearing batch: two fold in bare-MG treated mice
Peritoneal macrophages [6]; normal mice
  Peritoneal macrophage Count (×10^6): 10.88 ± 1.15 ×10^6
Peritoneal macrophages [6]; sarcoma tumour bearing mice
  Peritoneal macrophage Count (×10^6): 12.91 ± 1.46 ×10^6

## COc1ccc2[nH]cc(CCNC(C)=O)c2c1 [Melatonin]
[3]; melatonin in combination with ascorbic acid and creatine, with modified NanoMG
  Effect of introducing melatonin on tumor growth inhibition of EAC cells: 2. Efficacy is enhanced further when melatonin is introduced in combination with ascorbic acid and creatine for tumor growth inhibition of EAC cells in mice
[7]
  Survival of the treated mice: increased the survival
  Viability and volume of Ehrlich Ascites Carcinoma cells: reduced the viability and volume

## CN(CC(=O)O)C(=N)N [Creatine]
Sarcoma
  Effect of Creatine administration on the effect of Methylglyoxal and Ascorbic Acid: significantly augmented

## NC1=NCCN1CC(=O)O [Cyclocreatine, cyclocreatine]
L1236
  Inhibition of proliferation: nearly entirely
